These results are taken from ChEMBL document CHEMBL1153010, “Effect of conjugates of all-trans-retinoic acid and shorter polyene chain analogues with amino acids on prostate cancer cell growth” (Eur J Med Chem, 2009).

Assay [1] deals with LNCaP. Briefly: Antiproliferative activity against human LNCAP cells assessed as maximal effect at 10 uM after 48 hrs by MTT assay. Format: functional, cell-based.
In assay [2] the test system is LNCaP. Put plainly: Cell cycle arrest in human LNCAP cells assessed as accumulation at G2/M phase after 48 hrs by flow cytometry. The assay is classed as functional. (A flow cytometer gives signals particle by particle.)
Assay [3] has as its system LNCaP. Briefly: Antiproliferative activity against human LNCAP cells after 48 hrs by MTT assay. Format: functional, cell-based. (In general: Tetrazolium assays rely on reduction of a dye to a coloured formazan, in cell work by metabolically active cells.)
The test system of assay [4] is LNCaP. Put plainly: Antiproliferative activity against human LNCAP cells after 48 hrs by MTT assay in the presence of 1 uM RARalpha selective antagonist Ro415253. The assay is classed as functional, cell-based.
Assay [5] relates to LNCaP. Briefly: Cell cycle arrest in human LNCAP cells assessed as accumulation at S phase after 48 hrs by flow cytometry. The assay is classed as functional.
The test system of assay [6] is LNCaP. Briefly: Cell cycle arrest in human LNCAP cells assessed as accumulation at G0/G1 phase after 48 hrs by flow cytometry. Format: functional.
In assay [7] the test system is LNCaP. Briefly: Effect on morphology in human LNCAP cells assessed as elongation of cells by phase-contrast microscopy. Format: functional, cell-based.

Each structure is given as a SMILES string. Activity calls are given as the source filed them. The calls are words filed in the database; no cut-off is given here.

With `CC1=C(/C=C/C(C)=C/C=C/C(C)=C/C(=O)O)C(C)(C)CCC1` [TRETINOIN], the result in the assay with LNCaP [1] was Active. Also, the Activity with LNCaP [2] is 4.4%; in the assay on LNCaP [3] it was “Dose-dependent effect”; in the assay on LNCaP [5] it was 17.6%; in the assay with LNCaP [6], 66.7%. The same compound returned an IC50 in the assay with LNCaP [3] of 500 nM. The outcome with LNCaP [4] was inactive.

In the case of `CC1=C(/C=C/C(C)=C/C=C/C(C)=C/C(=O)N[C@@H](CC(C)C)C(=O)O)C(C)(C)CCC1`, the result in the assay on LNCaP [1] and with LNCaP [4] was Active. Also, the Activity was 1.9% with LNCaP [2], “Dose-dependent effect” in the assay on LNCaP [3], 19.6% in the assay with LNCaP [5] and 65.9% in the assay with LNCaP [6]. This compound also showed an IC50 with LNCaP [3] of 270 nM.

For the compound `CC1=C(/C=C/C(C)=C/C=C/C(C)=C/C(=O)NCCC(=O)O)C(C)(C)CCC1`, the result in the assay on LNCaP [1], in the assay with LNCaP [7] and with LNCaP [4] was Active. For the same compound, the Activity in the assay with LNCaP [2] is 2.2%; with LNCaP [3] it was “Dose-dependent effect”; in the assay on LNCaP [5], 14.8%; with LNCaP [6], 64%. In the assay with LNCaP [3], this compound registered an IC50 of 270 nM.

On to `CC1=C(/C=C/C(C)=C/C=C/C(C)=C/C(=O)NCCCCCC(=O)O)C(C)(C)CCC1`, for which the outcome in the assay with LNCaP [7] was Active. Further, the result in the assay on LNCaP [3] was inactive.

In general, IC50 refers to the concentration needed to halve the response being measured. A higher IC50 goes with weaker potency.
